{
  "source": "patent US20250381274A1",
  "about": "(priority 2022, published 2025)",
  "system": "cornea",
  "test": "Corneal topography (EyeSys), effective refractive power of ex vivo eyes crosslinked under coverslip loading",
  "design": "species or system rabbit",
  "conditions": "for immediate diopter drop (words) / sustained diopter drop (words): 20% ribose 1 hr + UVA 365 nm lamp up to 3 hrs; for immediate diopter drop (words): coverslip (Hypothesis 2B / Group3); for sustained diopter drop (words): coverslip, final time point 8-10 hours; for immediate diopter drop (decrease in effective refractive power): immediately after irradiation",
  "text": "• 5 additional rabbits (Paired treated and control for OS/OD) • Sample preparation for ex vivo EyeSys topography: • connected to IV system (˜15 mm H2O) • Epithelium removed • CxL during mechanical deformation introduced by the coverslip • Point1: 1 hr after IV stabilization • Point2: after applying 20% (1.7M) Ribose, then 20% Dextran • Point3: after flattening/treatment (˜2 hrs) • (flattened 8-10 mm) • Point4: ˜1 hr after point3 • Point5: last point (might need trypan blue on top) • Laser Treatments: • Fidelity II, 1069 nm, 39fs, 450 mW • Focusing: no (deliberate) spark around touching the tissue • ZEISS 40X, NA=0.1463 • Z: increments 20 μm, 5 layers (several intervals) • 1 stlayer 15 μm below surface of focus sparking • XY: 10 μm zigzag grid, 3 mm radius circle • Motor speed 2.6 mm/s, full circle treatments: ˜25*5 mins • Representative OCT and visual changes are shown in appended FIGS. 1-25.\n• 3 additional rabbits (Paired treated and control for OS/OD) • connected to IV system, stabilize for ˜1 hr • Trypan Blue inside the anterior chamber beneath cornea • CxL during mechanical deformation introduced by the coverslip • (˜40%-60% flattened by coverslip from the total diameter) • Treatment Protocol-1 hr submerged in 20% w/v Ribose in 20% Dextran • up to 3 hrs of UVA lamp (visible flattening as an indicator for duration)\nCorneal Topography: For Group3 eyes, using an EyeSys Vista handheld topographer, the effective refractive power (Eff.Rp) was collected at multiple time points in a 10-hour period after eye harvest. The immediate diopter drop was defined as the difference between the initial baseline Eff.Rp and the Eff.Rp immediately after CXL. The sustained diopter drop was defined as the difference between the initial baseline Eff.Rp and the final Eff.Rp. Statistical Analysis: One-tailed paired t-tests were used for statistical analysis of Eff.Rp (Group3); two-tailed paired t-tests were used for biomechanical comparison (Group1 and 2). A p-value smaller than 0.05 was considered statistically significant.\nCorneal Topography and OCT: The EyeSys topography effective refractive power (Eff.Rp) and OCT images were collected at multiple time points in a 10-hour period after eye harvest. Diopter drop after CxL was calculated and compared relative to the baseline Eff.Rp.\nIn Group2 (n=15 rabbits), to assess corneal flattening, 24 intact eyeballs (12 rabbits) were enucleated and placed into a custom-build holder such that one eye was subject to ROS-Glycation-CXL, and the other served as a paired control. After 1 hr incubation in 20% ribose PBS, all apical eyeballs were pressed with a coverslip until the contact between the cornea and the coverslip reached approximately 3 mm in diameter until the treatment finished. Group 2A's (n=6 pairs) treated eyes were exposed to 1.5 hours of UVA lamp irradiation, whereas Group 2 B's (n=6 pairs) treated eyes were exposed to 3 hours of UVA lamp irradiation. Intraocular pressure was kept at 18-20 mm H2O through an IV system with needles connecting at the posterior side of the eyeball. In order to investigate the mechanical difference between the 1.5 hrs and 3 hrs irradiation groups, Group 2C's (n=3 pairs) corneas went through similar preparations as Group 1 corneas did such that the two treatments with different irradiation times were applied to the pair of eyes from the same animal.\nEffective refractive power (Eff. RP) was measured using a handheld topographer (EyeSys Vista, Teas, USA) for Group 2A and 2B eyes. The first point measured at 0.5-1 hour represents the baseline initial refractive power after stabilization at the controlled intraocular pressure before any alterations. The second point measured at 2 hours represents the refractive power after the ribose solution application. The third point at 3.5 hours for Group 2A or 5 hours for Group 2B represents refractive power after ROS-Glycation-CXL or loading for control eyes. […]",
  "key": {"[1]": {"conditions": "20% ribose + 1069 nm femtosecond laser 450 mW, coverslip deformation (Hypothesis 2A)"}},
  "note": "Entries after “also recorded” stand apart in the source; their conditions may differ.",
  "data": [
    {"smiles": "O=C[C@H](O)[C@H](O)[C@H](O)CO", "note": "[ribose]", "values": [
      {"measurement": "immediate diopter drop (words)", "value": "significant Eff.RP diopter drop"},
      {"measurement": "immediate diopter drop (words)", "setting": "listed as Ribose", "value": "diopter drop immediately after treatment"},
      {"measurement": "sustained diopter drop (words)", "value": "statistically significant sustained Eff.RP diopter drop; also recorded: stably sustained"},
      {"measurement": "sustained diopter drop (words)", "setting": "listed as Ribose", "value": "persistent at the 8-10 hours time point"},
      {"measurement": "immediate diopter change", "setting": "[1]", "value": "diopter drop immediately after treatment"},
      {"measurement": "persistence of diopter change", "setting": "[1]", "value": "not persistent and gradually recovered to the baseline"},
      {"measurement": "immediate diopter drop (decrease in effective refractive power)", "setting": "Group 2A: 20% ribose 1 hr, 1.5 hr 365 nm UVA lamp under coverslip flattening", "value": 5, "unit": "diopters"},
      {"measurement": "sustained diopter drop (decrease in effective refractive power)", "setting": "Group 2A: 1.5 hr UVA treatment, 10 hr time point", "value": 2.5, "unit": "diopters"},
      {"measurement": "immediate diopter drop (decrease in effective refractive power)", "setting": "Group 2B: 20% ribose 1 hr, 3 hr 365 nm UVA lamp under coverslip flattening", "value": 10, "unit": "diopters"},
      {"measurement": "refractive power drop, crosslinked vs control pairs, immediate and sustained", "setting": "Groups 2A and 2B: ribose + 1.5 hr or 3 hr UVA lamp with coverslip loading", "value": "sustained drop of refractive power; also recorded: Significant immediate and sustained refractive power drop differences"}
    ]}
  ]
}
